Measurements as given in patent US6310093A (priority 1998, dated 2001).
Positions count from the first letter of the chain named. Values joined by “and” are separate entries in the source; they are usually repeats but may differ in a detail not shown here. Equal entries are not always repeated. “Also recorded” adds a separate entry of the source. Where two headings read alike, the source gives them in different places. Non-standard residues stand in square brackets, D forms with d. Residues, ends and D or L forms follow the SMILES beside them. pGlu = O=C1CC[C@@H](C(=O)O)N1

Assays:
[1] = tested on: pure neuronal cultures (cortical neurons) exposed to glutamine
[2] = biological target: T1, glutaminase (brain membranes) (Rattus norvegicus, UniProt P13264); assay: biochemical; parameters: Glutaminase Activity: unit not given here; conditions: for Glutaminase Activity: brain membranes
T1 construct: Membranes are prepared by homogenization of brain tissue in 330 mM sucrose; from tissue; host or cells: rat brain, crude membranes (17000 G pellet)
T1 sequence (P13264 73-674 limits assumed): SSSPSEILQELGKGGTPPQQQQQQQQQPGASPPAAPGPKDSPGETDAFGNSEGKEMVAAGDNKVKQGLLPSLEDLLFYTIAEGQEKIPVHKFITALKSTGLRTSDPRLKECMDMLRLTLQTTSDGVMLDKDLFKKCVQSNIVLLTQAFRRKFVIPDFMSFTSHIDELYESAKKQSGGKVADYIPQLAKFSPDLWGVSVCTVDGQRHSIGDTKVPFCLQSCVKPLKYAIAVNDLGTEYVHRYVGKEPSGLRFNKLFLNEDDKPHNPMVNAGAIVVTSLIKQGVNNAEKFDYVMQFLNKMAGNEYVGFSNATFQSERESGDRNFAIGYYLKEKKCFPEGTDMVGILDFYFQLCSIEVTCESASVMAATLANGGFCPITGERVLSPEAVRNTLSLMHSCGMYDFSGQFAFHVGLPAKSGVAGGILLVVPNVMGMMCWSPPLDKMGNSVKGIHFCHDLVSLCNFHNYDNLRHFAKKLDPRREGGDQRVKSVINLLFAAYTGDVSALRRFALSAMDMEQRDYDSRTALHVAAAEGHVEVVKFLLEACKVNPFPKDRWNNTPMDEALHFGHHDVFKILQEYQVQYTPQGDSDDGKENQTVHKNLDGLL

[3] = tested on: glutaminase; conditions: cited from earlier work
[4] = tested on: neuronal cells in culture
[5] = Huber; cited from earlier work
[6] = biological target: T2, glutaminase in damaged neurons (Mus musculus, UniProt D3Z7P3)
T2 sequence (D3Z7P3 73-674 limits assumed): T1 sequence (P13264 73-674 limits assumed) with V64I, E590G

[7] = tested on: glial cultures (astrocytes); type: cell-based, mouse (Swiss Webster); conditions: at much higher concentrations than inhibition of exposed glutaminase
[8] = biological target: T3, glutaminase in live (intact) neurons (Mus musculus, UniProt D3Z7P3); type: cell-based, mouse (Swiss Webster)
T3 sequence (D3Z7P3 55-674): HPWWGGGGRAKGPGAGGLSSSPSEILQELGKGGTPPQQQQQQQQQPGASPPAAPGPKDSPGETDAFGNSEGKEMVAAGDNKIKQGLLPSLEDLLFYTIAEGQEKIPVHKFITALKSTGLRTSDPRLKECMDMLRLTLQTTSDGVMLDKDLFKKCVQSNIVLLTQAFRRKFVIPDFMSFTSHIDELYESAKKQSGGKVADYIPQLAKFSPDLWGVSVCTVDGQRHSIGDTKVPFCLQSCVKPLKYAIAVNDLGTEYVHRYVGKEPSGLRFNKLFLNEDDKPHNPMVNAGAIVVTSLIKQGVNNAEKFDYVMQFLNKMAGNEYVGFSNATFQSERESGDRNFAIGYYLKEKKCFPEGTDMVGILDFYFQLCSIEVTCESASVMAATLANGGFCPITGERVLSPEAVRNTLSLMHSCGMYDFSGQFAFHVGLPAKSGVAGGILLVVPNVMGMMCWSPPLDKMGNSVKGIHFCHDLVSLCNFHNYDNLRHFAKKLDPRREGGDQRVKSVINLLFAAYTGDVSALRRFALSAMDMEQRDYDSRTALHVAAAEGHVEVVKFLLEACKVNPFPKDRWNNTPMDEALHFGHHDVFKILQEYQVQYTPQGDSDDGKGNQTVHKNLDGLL

[9] = tested on: mixed neuronal-astrocyte cultures
[10] = tested on: hippocampal slices (field potential); conditions: 120 μM, 60 min perfusion
[11] = 7 h hypoxia, 2 mM Gln + 30 uM pCMPS
[12] = read-out: glutaminase activity, phosphate-containing compounds

CCCCCCCC([N+](=O)[O-])[N+](=O)[O-] [1,1-dinitrooctane]
neuroprotection (in words) [1]: neuroprotective in cultures of pure (intact) neurons
lowering of LDH level ([1]; pure neuronal cultures): 30-40%
lowering of glutamate level ([1]; pure neuronal cultures): 30-40%
dependence of glutaminase inhibition on phosphate level and concentration (in words) [2]: inhibition was reduced in the presence of high phosphate levels; the effect was particularly evident; also recorded: A biphasic effect
Glutaminase Activity ([2]; 30 µM): 96 ± 3
Glutaminase Activity ([2]; 100 µM): 96 ± 4
Glutaminase Activity ([2]; 300 µM): 51 ± 4 and 88 ± 17
Glutaminase Activity ([2]; 3000 µM): 64 ± 43
activity at 30 µM ([2]; read-out: Glutaminase Activity): 89 ± 6%
activity at 100 µM ([2]; read-out: Glutaminase Activity): 77 ± 11%
activity at 3000 µM ([2]; read-out: Glutaminase Activity): 79 ± 27%

N[C@@H](CC(=O)CCl)C(=O)O [Chloroketone, L-2-amino-4-oxo-5-chloropentanoic acid]
glutaminase inhibition (literature, in words) [3]: only weak (mM) inhibitors
LDH release from neuronal cells (in words) [4]: resulted in release of lactate dehydrogenase from the cells, indicating cellular toxicity and death

NCC(=O)N[C@@H](CCC(=O)O)C(=O)O [Gly--Glu] (H-Gly-Glu-OH)
activity at 3300 µM ([2]; read-out: Glutaminase Activity): 94%
activity at 9000 µM ([2]; read-out: Glutaminase Activity): 102%

NCC(=O)NCC(=O)N[C@@H](CCC(=O)O)C(=O)O [Gly--Gly--Glu] (H-Gly-Gly-Glu-OH)
activity at 3300 µM ([2]; read-out: Glutaminase Activity): 101%
activity at 9000 µM ([2]; read-out: Glutaminase Activity): 87%

NCC(=O)N[C@H](CCC(=O)O)C(=O)O [Gly-D-Glu] (H-Gly-[dE]-OH)
activity at 3300 µM ([2]; read-out: Glutaminase Activity): 109%
activity at 9000 µM ([2]; read-out: Glutaminase Activity): 90%

CCOC(=O)CC[C@H](N)C(=O)O [L-glutamate-5-ethyl ester]
activity at 3300 µM ([2]; read-out: Glutaminase Activity): 98%
activity at 9000 µM ([2]; read-out: Glutaminase Activity): 92%

COC(=O)CC[C@H](N)C(=O)O [L-glutamate-5-methyl ester]
activity at 3300 µM ([2]; read-out: Glutaminase Activity): 105 ± 7%
activity at 9000 µM ([2]; read-out: Glutaminase Activity): 113%

NC(=O)[C@@H](N)CCC(=O)O [L-glutamide]
activity at 3300 µM ([2]; read-out: Glutaminase Activity): 99%
activity at 9000 µM ([2]; read-out: Glutaminase Activity): 96%

CSCC[C@H](N)C(=O)N[C@@H](CCC(=O)O)C(=O)O [Met--Glu] (H-Met-Glu-OH)
activity at 3300 µM ([2]; read-out: Glutaminase Activity): 111%
activity at 9000 µM ([2]; read-out: Glutaminase Activity): 98%

CC(=O)N[C@@H](CC(=O)O)C(=O)N[C@@H](CCC(=O)O)C(=O)O [N-acetyl Asp--Glu] (Ac-Asp-Glu-OH)
glutaminase inhibition (in words) [2]: moderate inhibition
activity at 3300 µM ([2]; read-out: Glutaminase Activity): 83%

N=CN[C@@H](CCC(=O)O)C(=O)O [N-formamino-Glu]
activity at 3300 µM ([2]; read-out: Glutaminase Activity): 89%
activity at 9000 µM ([2]; read-out: Glutaminase Activity): 127%

N[C@@H](CO)C(=O)N[C@@H](CCC(=O)O)C(=O)O [Ser--Glu] (H-Ser-Glu-OH)
activity at 3300 µM ([2]; read-out: Glutaminase Activity): 104%
activity at 9000 µM ([2]; read-out: Glutaminase Activity): 88%

N[C@@H](Cc1c[nH]c2ccccc12)C(=O)N[C@@H](CCC(=O)O)C(=O)O [Trp--Glu] (H-Trp-Glu-OH)
activity at 3300 µM ([2]; read-out: Glutaminase Activity): 99%
activity at 9000 µM ([2]; read-out: Glutaminase Activity): 86%

N[C@@H](Cc1ccc(O)cc1)C(=O)N[C@@H](CCC(=O)O)C(=O)O [Tyr--Glu] (H-Tyr-Glu-OH)
activity at 3300 µM ([2]; read-out: Glutaminase Activity): 110%
activity at 9000 µM ([2]; read-out: Glutaminase Activity): 118%

CC(C)[C@H](N)C(=O)N[C@@H](CCC(=O)O)C(=O)O [Val--Glu] (H-Val-Glu-OH)
activity at 3300 µM ([2]; read-out: Glutaminase Activity): 114%
activity at 9000 µM ([2]; read-out: Glutaminase Activity): 99%

N[C@H](C(=O)O)[C@@H]1CC(Cl)=NO1 [acivicin]
glutaminase inhibition (literature, in words) [3]: do not inhibit glutaminase
crossing of cell membranes (in words) [5]: readily cross cell membranes
effect on glutamine hydrolysis by damaged neurons (in words) [6]: no effect on glutamine hydrolysis

[N-]=[N+]=CC(=O)OC[C@H](N)C(=O)O [azaserine]
glutaminase inhibition (literature, in words) [3]: do not inhibit glutaminase

O=C(O)CC[C@H](NC(=O)OCc1ccccc1)C(=O)O [carbobenzoxy-Glu--OH]
glutaminase inhibition (in words) [2]: moderate inhibition
activity at 3300 µM ([2]; read-out: Glutaminase Activity): 65%
activity at 9000 µM ([2]; read-out: Glutaminase Activity): 56%

NNC(=O)CCC(N)C(=O)O (stereo not shown) [glutamate-γ-hydrazide]
effect on glutamine hydrolysis by damaged neurons (in words) [6]: no effect on glutamine hydrolysis

O=C(O)CCCC(=O)O [glutaric acid]
activity at 3300 µM ([2]; read-out: Glutaminase Activity): 89%
activity at 9000 µM ([2]; read-out: Glutaminase Activity): 75%

NCC(=O)NC(CC(F)C(=O)O)C(=O)O (stereo not shown) [glycyl-4-fluoroglutamate, Glycyl-4-fluoroglutamate]
activity at 330 µM ([2]; read-out: Glutaminase Activity): 94%
activity at 900 µM ([2]; read-out: Glutaminase Activity): 80%
activity at 3300 µM ([2]; read-out: Glutaminase Activity): 55%
activity at 9000 µM ([2]; read-out: Glutaminase Activity): 30%

O=S(=O)(O)c1cc[c]([Hg][Cl])cc1 [pCMPS, p-(chloromercuri)phenyl sulfonic acid]
glial uptake of glutamate (in words) [7]: blocks glial uptake of glutamate
concentration required to inhibit glutaminase [6]: 10 to 30 µM
inhibition of glutamine hydrolysis by NMDA-damaged neurons (in words) ([6]; 30 μM): almost completely inhibited
glutamate generation by NMDA-damaged neurons (in words) ([6]; 600 μM): completely abolished glutamate generation
effect on glutaminase activity of intact/live neurons (in words) [8]: lack of effect
LDH release caused by glutamine exposure (in words) [1]: prevented the release of LDH
medium glutamate [1]: 10.3 ± 4 μM Glu
neuronal morphology (in words) [1]: neurons retained their normal appearance after 24 h
neuroprotection (in words) [1]: protected pure neuronal cultures from neuronal damage caused by exposure to glutamine
neuronal LDH release ([1]; mouse, pure neuronal cultures, 24 h, 30 µM): 17 ± 10.5
effect on medium glutamate and release of LDH in hypoxic mixed cultures (in words) ([9]; 30 μM pCMPS, 2 mM glutamine, hypoxia 7h): lowered medium glutamate and release of LDH
medium glutamate [9, 11]: 1.45 ± 1.0 μM Glu
neuronal LDH release [9, 11]: 38.5 ± 8.1%
effect on hippocampal field potential (in words) [10]: no effect on the field potential
LDH release from control cultures (in words) ([4]; 30 μM): did not cause LDH release from control cultures

Cc1ncc(COP(=O)(O)O)c(C=O)c1O [pyridoxal 5-phosphate]
activity at 3000 µM [2, 12]: 75 to 90%
activity at 9000 µM [2, 12]: 70 to 85%

C[C@H](NC(=O)[C@@H]1CCC(=O)N1)C(=O)N[C@@H](CCC(=O)O)C(=O)O [pyro-Glu--Ala--Glu] ([pGlu]-Ala-Glu-OH)
activity at 3300 µM ([2]; read-out: Glutaminase Activity): 95%
activity at 9000 µM ([2]; read-out: Glutaminase Activity): 76%

CC(C)OP(=O)(CCP(=O)(OC(C)C)OC(C)C)OC(C)C [tetraisopropyl ethylene diphosphonate]
activity at 3000 µM [2, 12]: 75 to 90%
activity at 9000 µM [2, 12]: 70 to 85%

NC(CC(=O)O)CC(=O)O [β-glutamic acid]
Glutaminase Activity ([2]; 9000 µM): 73 and 83 and 94
activity at 3300 µM ([2]; read-out: Glutaminase Activity): 84%

N[C@@H](CCC(=O)NCC(=O)O)C(=O)O [γ-Glu--Gly]
activity at 3300 µM ([2]; read-out: Glutaminase Activity): 90 ± 13%

NC(CC(C(=O)O)C(=O)O)C(=O)O (stereo not shown) [γ-carboxy glutamate]
activity at 3300 µM ([2]; read-out: Glutaminase Activity): 100%
activity at 9000 µM ([2]; read-out: Glutaminase Activity): 104%
